Results published in patent publication EP3421483A1, “NOVEL STEROIDAL 17-BETA HETEROARYL COMPOUNDS AS INHIBITORS OF AKR1C3” (Bayer Pharma Aktiengesellschaft, priority 2017, dated 2019).
Values joined by “and” are separate entries in the source; they are usually repeats but may differ in a detail not shown here. Equal entries are not always repeated.

Each molecule was assayed against T1, recombinant human AKR1C3 (aldo-keto reductase family 1 member C3) (Homo sapiens, UniProt P42330) (assay: AKR1C3 enzyme inhibition assay (fluorescence; NADPH-dependent reduction of coumberone to coumberol)). Settings: not given.
T1 construct: GST (cleaved yes); made in house; host or cells: E. coli
T1 sequence (P42330 1-323): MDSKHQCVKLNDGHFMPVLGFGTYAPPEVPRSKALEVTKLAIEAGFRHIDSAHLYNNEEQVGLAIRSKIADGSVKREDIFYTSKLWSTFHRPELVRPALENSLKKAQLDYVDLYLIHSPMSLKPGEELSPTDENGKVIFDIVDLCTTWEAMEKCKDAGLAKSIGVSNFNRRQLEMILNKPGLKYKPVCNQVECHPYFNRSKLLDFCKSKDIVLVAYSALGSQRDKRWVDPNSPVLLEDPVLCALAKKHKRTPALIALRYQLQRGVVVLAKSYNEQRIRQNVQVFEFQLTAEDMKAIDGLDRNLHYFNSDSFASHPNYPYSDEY
Type: biochemical
Description: The AKR1C3-inhibitory action of the substances of this invention was measured in the AKR1C3 assay described in the paragraphs which follow. Essentially, the enzyme activity is measured by quantifying the coumberol formed from coumberone ([…]., and […]. AM. CHEM. SOC. 130, 14123-14128 (2008) […]., Bauman, D.R., Penning, T.M., and […]., Proc. Natl. Acad. Sci. USA 103, 13304 - 13309 (2006)). In this assay, the increase in the highly fluorescent coumberol can be determined by NADPH (nicotinamide adenine dinucleotide phosphate)-dependent reduction of the nonfluorescent coumberone by AKR1C3. […] NM_003739). This was expressed as the GST (glutathione S-transferase) fusion protein in E. coli and purified by means of glutathione-Sepharose affinity chromatography. The GST was removed by thrombin digestion with subsequent size exclusion chromatography (Dufort, I., Rheault, P., Huang, XF., Soucy, P., and Luu-The, V., Endocrinology 140, 568-574 (1999)). […] The concentration of the AKR1C3 was matched to the respective activity of the enzyme preparation and set such that the assay worked within the linear range. Typical concentrations were in the region of 1 nM. The reaction was stopped by adding 5 μl of a stop solution consisting of the inhibitor EM-1404 [F. Labrie et al. US Patent 6,541,463, 2003] (2 μM → final concentration in assay volume […] is 1 μM). Subsequently, the fluorescence of coumberol was measured at 520 nm (excitation at 380 nm) with a suitable measuring instrument (Pherastar from BMG Labtechnologies). […] As described, the pharmacological substances claimed were tested for their inhibitory effect on the AKR1C3 enzyme (see Table 3). […] Table 3: Inhibition of AKR1C3 by the inventive compounds (for some of the compounds, the values for two experimental determinations are reported)

SMILES	IC50
CC(C)(CNC(=O)c1ccc2c(c1)CC[C@@H]1[C@@H]2CC[C@]2(C)[C@@H](c3cncc(F)c3)CC[C@@H]12)C(=O)O [Example 5, 3-([[(17beta)-17-(5-fluoropyridin-3-yl)estra-1,3,5(10)-trien-3-yl]carbonyl}amino)-2,2-dimethylpropanoic acid]	13.8 nM and 13.1 nM

Same assay, conditions: 10 µM NADPH, 0.3 µM coumberone, 15 min preincubation, 90 min at 22°C, pH 7; 4-parameter fit; for some compounds two experimental determinations are given; read-out: AKR1C3 enzyme inhibition IC50

IC50	SMILES
16.9 nM and 26 nM	C[C@]12CC[C@@H]3c4ccc(C(=O)NCCC(=O)O)cc4CC[C@H]3[C@@H]1CC[C@@H]2c1cncc(C(F)(F)F)c1 [Example 9, N-{[(17beta)-17-[5-(trifluoromethyl)pyridin-3-yl]estra-1,3,5(10)-trien-3-yl]carbonyl}-beta-alanine]
48.5 nM and 76.2 nM	CN(CC(=O)O)C(=O)c1ccc2c(c1)CC[C@@H]1[C@@H]2CC[C@]2(C)[C@@H](c3cncc(C(F)(F)F)c3)CC[C@@H]12 [Example 8, N-methyl-N-[[(17beta)-17-[5-(trifluoromethyl)pyridin-3-yl]estra-1,3,5(10)-trien-3-yl]carbonyl}glycine]
35 nM and 44.1 nM	CN(CCC(=O)O)C(=O)c1ccc2c(c1)CC[C@@H]1[C@@H]2CC[C@]2(C)[C@@H](c3cncc(C(F)(F)F)c3)CC[C@@H]12 [Example 7, N-methyl-N-{[(17beta)-17-[5-(trifluoromethyl)pyridin-3-yl]estra-1,3,5(10)-trien-3-yl]carbonyl}-beta-alanine]
19.2 nM and 23.7 nM	CN(CCC(=O)O)C(=O)c1ccc2c(c1)CC[C@@H]1[C@@H]2CC[C@]2(C)[C@@H](c3cncc(F)c3)CC[C@@H]12 [Example 1, N-{[(17beta)-17-(5-fluoropyridin-3-yl)estra-1,3,5(10)-trien-3-yl]carbonyl}-N-methyl-beta-alanine]

More lines, now with the values behind:

SMILES	IC50
C[C@]12CC[C@@H]3c4ccc(C(=O)NCCC(=O)O)cc4CC[C@H]3[C@@H]1CC[C@@H]2c1cncc(F)c1 [Example 3, N-{[(17beta)-17-(5-fluoropyridin-3-yl)estra-1,3,5(10)-trien-3-yl]carbonyl}-beta-alanine]	5.47 nM and 9.35 nM
C[C@]12CC[C@@H]3c4ccc(C(=O)NCC(=O)O)cc4CC[C@H]3[C@@H]1CC[C@@H]2c1cncc(F)c1 [Example 2, N-[[(17beta)-17-(5-fluoropyridin-3-yl)estra-1,3,5(10)-trien-3-yl]carbonyl}glycine]	26.4 nM and 28.9 nM
COc1cncc([C@H]2CC[C@H]3[C@@H]4CCc5cc(C(=O)N(C)CCC(=O)O)ccc5[C@H]4CC[C@]23C)c1 [Example 6, N-{[(17beta)-17-(5-methoxypyridin-3-yl)estra-1,3,5(10)-trien-3-yl]carbonyl}-N-methyl-beta-alanine]	67.6 nM and 82.1 nM
CN(CCC(=O)O)C(=O)c1ccc2c(c1)CC[C@@H]1[C@@H]2CC[C@]2(C)[C@@H](c3cncnc3)CC[C@@H]12 [Example 10, N-methyl-N-{[(17beta)-17-(pyrimidin-5-yl)estra-1,3,5(10)-trien-3-yl]carbonyl}-beta-alanine]	271 nM and 282 nM
CN(CCC(=O)O)C(=O)c1ccc2c(c1)CC[C@H]1[C@@H]3[C@@H](O)C[C@H](c4cncc(F)c4)[C@@]3(C)CC[C@H]21 [Example 12, N-{[(15alpha,17beta)-17-(5-fluoropyridin-3-yl)-15-hydroxyestra-1,3,5(10)-trien-3-yl]carbonyl}-N-methyl-beta-alanine]	188 nM
CN(CCC(=O)O)C(=O)c1ccc2c(c1)CC[C@H]1[C@@H]3[C@H](O)C[C@H](c4cncc(F)c4)[C@@]3(C)CC[C@H]21 [Example 11, N-{[(15beta,17beta)-17-(5-fluoropyridin-3-yl)-15-hydroxyestra-1,3,5(10)-trien-3-yl]carbonyl}-N-methyl-beta-alanine]	22.4 nM

Same assay, conditions: read-out: AKR1C3 enzyme inhibition IC50; 10 µM NADPH, 0.3 µM coumberone, 15 min preincubation, 90 min at 22°C, pH 7; 4-parameter fit; for some compounds two experimental determinations are given

SMILES	IC50
C[C@]12CC[C@@H]3c4ccc(C(=O)NCCCC(=O)O)cc4CC[C@H]3[C@@H]1CC[C@@H]2c1cncc(F)c1 [Example 4, 4-({[(17beta)-17-(5-fluoropyridin-3-yl)estra-1,3,5(10)-trien-3-yl]carbonyl}amino)butanoic acid]	7.79 nM and 6.76 nM
